US11160816B2, “Composition for treatment of Alzheimer's disease” (GLOVIA COMPANY LIMITED, priority 2017, dated 2021)

Tests used:
[1] = test system: oligodendrocyte precursor cells (OPCs); experiment: Cultivation of oligodendrocyte precursor cells, phase-contrast observation of proliferation and differentiation (FIG. 2); assay type: cell-based, mice; settings: final concentration of each 10 μM, cultivated for 48 hours, compared with control (PBS alone)
[2] = test system: mild to moderate Alzheimer patients; settings: 400 mg capsule 3 times per day for 180 days; cited from earlier work
stroke patients = settings: cited from earlier work
[3] = test system: oligodendrocyte precursor cells (OPCs); experiment: O1 antibody immunostaining of cultivated OPCs, ratio of O1 positive oligodendrocytes (FIG. 3); assay type: cell-based, mice; settings: final concentration of each 0.1 mM, 48 hours, compared with control
[4] = test system: oligodendrocyte progenitor cell; settings: cultivation in the presence of the substance; cited from earlier work
[5] = stroke patients, nonpatent document 6

SMILES | proliferation and differentiation of OPCs (phase-contrast photos) [1] | cognitive function [2] | cognitive abilities (stroke patients; 1000 mg per day for 28 days, then oral 400 mg per day for 5 months, 2,044 stroke patients) | harmful adverse drug reactions, share of patients (stroke patients; [5]) [%] | headache, share of patients (stroke patients; [5]) [%] | heartburn, share of patients (stroke patients; [5]) [%] | insomnia/agitation, share of patients (stroke patients; [5]) [%] | patients who hoped for stop of treatment (stroke patients; [5]) [%] | vomiturition/emesis, share of patients (stroke patients; [5]) [%] | ratio of O1 positive oligodendrocytes against the number of total cells [3] | generation of p-21.5kDaMBP, proliferation and differentiation of oligodendrocyte progenitor cell [4]
C[N+](C)(C)CCOP(=O)([O-])OC[C@H](O)CO [α-GPC, L-α-glycerylphosphorylcholine] | proliferation and differentiation of OPCs proceeds | improving effect on cognitive function | recovery of the patients' cognitive abilities | 2.14 | 0.2 | 0.7 | 0.4 | 0.7 | 0.5 | hardly increases compared with the control | 
C[C@@H]1O[C@@H](OC[C@H]2O[C@@H](Oc3cc(O)c4c(c3)O[C@H](c3ccc(O)cc3)CC4=O)[C@H](O)[C@@H](O)[C@@H]2O)[C@H](O)[C@H](O)[C@H]1O [narirutin] | proliferation and differentiation of OPCs proceeds |  |  |  |  |  |  |  |  |  | promoted the generation of p-21.5kDaMBP
COc1ccc([C@@H]2CC(=O)c3c(O)cc(O[C@@H]4O[C@H](CO[C@@H]5O[C@@H](C)[C@H](O)[C@@H](O)[C@H]5O)[C@@H](O)[C@H](O)[C@H]4O)cc3O2)cc1O [hesperidin] | proliferation and differentiation of OPCs proceeds |  |  |  |  |  |  |  |  |  | promoted the generation of p-21.5kDaMBP
